Test results taken from patent publication EP4603105A1, “PHARMACEUTICAL COMPOSITION CONTAINING CYCLIC COMPOUND HAVING SELECTIVE KRAS INHIBITORY EFFECT AGAINST HRAS AND NRAS” (CHUGAI SEIYAKU KABUSHIKI KAISHA, priority 2022, dated 2024).
*1 amine or outer side, *2 acyl side, *3 side chain or, on linkers, in order; H or OH if unused. Where a SMILES comes first, the peptide text is derived from it. Bridges are numbered along the chain shown (N, C = ends). [ ]: non-standard residue; d: D form. The star is where a group is joined. hPhe(3-Cl-4-CF3) = N[C@@H](CCc1ccc(C(F)(F)F)c(Cl)c1)C(=O)O; X42 = Cc1ccc(C[C@@H](C(=O)[*:2])N(CCC(F)(F)F)[*:1])cc1; NPrPhe(4-CF3) = CCCN[C@@H](Cc1ccc(C(F)(F)F)cc1)C(=O)O; NMeAbu(4,4,4-F3) = CN[C@@H](CC(F)(F)F)C(=O)O; Morpholine(3S-CO) = O=C(O)[C@@H]1COCCN1; NMeGly(cPent) = CN[C@H](C(=O)O)C1CCCC1; NMeD = CN[C@@H](CC(=O)O)C(=O)O; NMeL = CN[C@@H](CC(C)C)C(=O)O; Morpholide = C1CN(*)CCO1; NMeA = CN[C@@H](C)C(=O)O; Ac5c = NC1(C(=O)O)CCCC1; Aze = O=C(O)[C@@H]1CCN1; Sar = CNCC(=O)O

Columns and labels:
[1] = molecular target: GDP-bound NRAS wild-type protein (Homo sapiens, UniProt P01111); assay: Binding to NRAS by surface plasmon resonance (SPR), KD and KD ratio to KRAS
Outline: (§1)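 Affinity is measured by surface plasmon resonance at 30°C against captured, GDP-loaded RAS carrying a biotinylated Avi tag. Compounds are titrated by single-cycle kinetics, and KD comes from a 1:1 fit.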

HRAS wild-type protein = HRAS wild-type protein (Homo sapiens, UniProt P01112); assay: Binding to HRAS by surface plasmon resonance (SPR), KD and KD ratio to KRAS
Outline: as §1

[2] = test system: human lung cancer strain NCI-H441; format: cell-based
Outline: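 Readout: […] after the ATP-based reagent. Compound: serial dilutions in dimethyl sulfoxide.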

[3] = ratio of KD value for GDP-bound NRAS wild-type protein to KD value for KRAS (SPR)
[4] = ratio of KD value for HRAS wild-type protein to KD value for KRAS (SPR)
[5] = ratio of KD for GDP-bound NRAS wild-type protein to KD for KRAS
[6] = ratio of KD for HRAS wild-type protein to KD for KRAS

HRAS wild-type protein, sequence (P01112 whole entry): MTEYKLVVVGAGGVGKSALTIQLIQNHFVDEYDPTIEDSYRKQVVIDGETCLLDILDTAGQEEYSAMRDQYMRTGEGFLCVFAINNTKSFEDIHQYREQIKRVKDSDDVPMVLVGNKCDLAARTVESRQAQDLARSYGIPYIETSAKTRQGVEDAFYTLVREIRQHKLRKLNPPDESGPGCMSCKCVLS
GDP-bound NRAS wild-type protein, sequence (P01111 whole entry): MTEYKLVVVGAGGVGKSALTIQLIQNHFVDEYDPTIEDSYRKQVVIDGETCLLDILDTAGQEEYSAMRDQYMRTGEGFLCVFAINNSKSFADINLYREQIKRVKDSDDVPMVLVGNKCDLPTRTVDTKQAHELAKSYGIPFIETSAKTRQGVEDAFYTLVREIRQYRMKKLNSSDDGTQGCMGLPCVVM

Row | Structure (SMILES) | NRAS /KRAS [1, 3] | HRAS /KRAS (HRAS wild-type protein; [4]) | IC50 [2] | NRAS /KRAS [1, 5] | HRAS /KRAS (HRAS wild-type protein; [6])
1 | CC[C@H](C)[C@@H]1NC(=O)[C@H](CC(C)C)N(C)C(=O)C[C@@H](C(=O)N(C)CC)N(C)C(=O)[C@H](C2CCCC2)N(C)C(=O)C2(CC(C)(C)C2)NC(=O)[C@@H]2C[C@@H](F)CN2C(=O)[C@H](CCc2cc(F)c(C(F)(F)F)c(F)c2)NC(=O)CN(C)C(=O)[C@H](Cc2ccc(C(F)(F)F)cc2)N2CC/C=C\C[C@@H](C2=O)N(C)C(=O)CN(C)C1=O [PP1694] | A (a compound having 10 or more and less than 20 is denoted as A) | A (a compound having 10 or more and less than 20 is denoted as A) | 4.1 nM | – | –
2 | CC[C@H](C)[C@@H]1NC(=O)[C@H](CC(C)C)N(C)C(=O)C[C@@H](C(=O)N2CCOCC2)N(C)C(=O)[C@H](C2CCCC2)N(C)C(=O)C2(CCCC2)NC(=O)[C@@H]2CCCN2C(=O)[C@H](CCc2ccc(C(F)(F)F)c(Cl)c2)NC(=O)CN(C)C(=O)[C@H](Cc2ccc(C)cc2)N(CCC(F)(F)F)C(=O)CN(C)C(=O)CN(C)C1=O [PP0103] ([NMeL]I[Sar][Sar][X42][Sar][hPhe(3-Cl-4-CF3)]P[Ac5c][NMeGly(cPent)][NMeD]-Morpholide; lactam N-11) | – | – | 8.2 nM | B (a compound having 3 or more and less than 10 is denoted as B) | C (A compound having a KD ratio of 0.1 or more and less than 3 is denoted as C)
3 | C#CC[C@H]1C(=O)N[C@@H]([C@@H](C)CC)C(=O)N(C)CC(=O)N(C)[C@H]2C/C=C\CCN(C2=O)[C@@H](Cc2ccc(C(F)(F)F)cc2)C(=O)N(C)CC(=O)N[C@@H](CCc2cc(F)c(C(F)(F)F)c(F)c2)C(=O)N2C[C@H](F)C[C@H]2C(=O)NC2(CC(C)(C)C2)C(=O)N(C)[C@@H](C2CCCC2)C(=O)N(C)[C@H](C(=O)N(C)CCC)CC(=O)N1C [PP1692] | AA (a compound having 20 or more is denoted as AA) | A (a compound having 10 or more and less than 20 is denoted as A) | 4.3 nM | – | –
4 | CCCN1C(=O)[C@@H]2CCN2C(=O)[C@H](C)N(C)C(=O)[C@H]([C@@H](C)CC)NC(=O)[C@H](CC(F)(F)F)N(C)C(=O)C[C@@H](C(=O)N2CCOCC2)N(C)C(=O)[C@H](C2CCCC2)N(C)C(=O)C2(CCCC2)NC(=O)[C@@H]2CCCN2C(=O)[C@H](CCc2ccc(C(F)(F)F)c(Cl)c2)NC(=O)CN(C)C(=O)[C@@H]1Cc1ccc(C(F)(F)F)cc1 [PP0191] ([NMeAbu(4,4,4-F3)]I[NMeA][Aze][NPrPhe(4-CF3)][Sar][hPhe(3-Cl-4-CF3)]P[Ac5c][NMeGly(cPent)][NMeD]-Morpholide; lactam N-11) | – | – | 3.9 nM | C (A compound having a KD ratio of 0.1 or more and less than 3 is denoted as C) | B (a compound having 3 or more and less than 10 is denoted as B)
5 | CCCN1C(=O)[C@@H]2CCN2C(=O)[C@H](C)N(C)C(=O)[C@H]([C@@H](C)CC)NC(=O)[C@H](CC(C)C)N(C)C(=O)C[C@@H](C(=O)N2CCOCC2)N(C)C(=O)[C@H](C2CCCC2)N(C)C(=O)C2(CCCC2)NC(=O)[C@@H]2COCCN2C(=O)[C@H](CCc2ccc(C(F)(F)F)c(Cl)c2)NC(=O)CN(C)C(=O)[C@@H]1Cc1ccc(C(F)(F)F)cc1 [PP0286] ([NMeL]I[NMeA][Aze][NPrPhe(4-CF3)][Sar][hPhe(3-Cl-4-CF3)][Morpholine(3S-CO)][Ac5c][NMeGly(cPent)][NMeD]-Morpholide; lactam N-11) | – | – | 35 nM | C (A compound having a KD ratio of 0.1 or more and less than 3 is denoted as C) | B (a compound having 3 or more and less than 10 is denoted as B)
